Measurements as given in patent US7767659B2, “Synthesis of naturally occurring ecteinascidins and related compounds” (Pharma Mar, S.A., priority 2002, dated 2010).
Like-named read-outs stand apart in the source and are kept apart here.

Columns and labels:
[1] = system: IGROV-ET; assay: Inhibition of cells growth by colorimetric assay (SRB); conditions: Homo sapiens, 48 h
Procedure, shortened: (§1)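 Colorimetric SRB read (490 nm) on triplicate wells after 48 h at 37 °C, 5% CO2. Dose range 10 to 10^−8 μg/ml; 5×10^3 cells/well pre-attached 18 h.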

[2] = system: LNCaP; assay: as above; conditions: Homo sapiens, LNCaP, 48 h
Procedure, shortened: as §1

[3] = system: LoVo-Dox; assay: as above; conditions: Homo sapiens, 48 h
Procedure, shortened: as §1

[4] = system: K-562; assay: as above; conditions: Homo sapiens, K562, 48 h
Procedure, shortened: as §1

[5] = system: SK-BR-3; assay: as above; conditions: Homo sapiens, SK-BR-3, 48 h
Procedure, shortened: as §1

[6] = system: IGROV-1; assay: as above; conditions: Homo sapiens, IGROV-1, 48 h
Procedure, shortened: as §1

[7] = system: SK-MEL-28; assay: as above; conditions: Homo sapiens, SK-MEL-28, 48 h
Procedure, shortened: as §1

[8] = system: DU-145; assay: as above; conditions: Homo sapiens, DU-145, 48 h
Procedure, shortened: as §1

[9] = system: PANC-1; assay: as above; conditions: Homo sapiens, PANC-1, 48 h
Procedure, shortened: as §1

[10] = system: HeLa-APL; assay: as above; conditions: Homo sapiens, 48 h
Procedure, shortened: as §1

[11] = system: HeLa; assay: as above; conditions: Homo sapiens, HeLa, 48 h
Procedure, shortened: as §1

[12] = system: LoVo; assay: cells; conditions: Homo sapiens, LoVo, 48 h
Procedure, shortened: as §1

[13] = system: A-549; assay: cells; conditions: Homo sapiens, A549, 48 h
Procedure, shortened: as §1

[14] = system: HT-29; assay: cells; conditions: Homo sapiens, HT-29, 48 h
Procedure, shortened: as §1

## C=CCN1[C@@H]2c3c(cc(C)c(OC)c3O)C[C@H]1[C@H](C#N)N1C2[C@@H]2SCC(NC(=O)CCCCCCCCCCCCCCC)C(=O)OC[C@H]1c1c3c(c(C)c(OC(C)=O)c12)OCO3 (stereo partly shown) [compound 26]
[1]; read-out: GI50 IGROV-ET
  GI50: 11.6 µM
[1]; read-out: LC50 IGROV-ET
  CC50: 11.6 µM
[1]; read-out: TGI IGROV-ET
  IC (TGI): 11.6 µM
[2]; read-out: GI50 LNCAP
  GI50: 3.82 µM
[2]; read-out: LC50 LNCAP
  CC50: 11.6 µM
[2]; read-out: TGI LNCAP
  IC (TGI): 11.6 µM
[3]; read-out: GI50 LOVO-DOX
  GI50: 11.6 µM
[3]; read-out: LC50 LOVO-DOX
  CC50: 11.6 µM
[3]; read-out: TGI LOVO-DOX
  IC (TGI): 11.6 µM
[4]; read-out: GI50 K562
  GI50: 2.3 µM
[4]; read-out: LC50 K562
  CC50: 10.6 µM
[4]; read-out: TGI K562
  IC (TGI): 4.94 µM
[5]; read-out: GI50 SK-BR3
  GI50: 4.23 µM
[5]; read-out: LC50 SK-BR3
  CC50: 11.6 µM
[5]; read-out: TGI SK-BR3
  IC (TGI): 9.2 µM
[6]; read-out: GI50 IGROV
  GI50: 6.84 µM
[6]; read-out: LC50 IGROV
  CC50: 11.6 µM
[6]; read-out: TGI IGROV
  IC (TGI): 11.6 µM
[7]; read-out: GI50 MEL-28
  GI50: 11.6 µM
[7]; read-out: LC50 MEL-28
  CC50: 11.6 µM
[7]; read-out: TGI MEL-28
  IC (TGI): 11.6 µM
[8]; read-out: GI50 DU145
  GI50: 11.6 µM
[8]; read-out: LC50 DU145
  CC50: 11.6 µM
[8]; read-out: TGI DU145
  IC (TGI): 11.6 µM
[9]; read-out: GI50 PANC-1
  GI50: 11.6 µM
[9]; read-out: LC50 PANC-1
  CC50: 11.6 µM
[9]; read-out: TGI PANC-1
  IC (TGI): 11.6 µM
[10]; read-out: LC50 HELA-APL
  CC50: 11.6 µM
[11]; read-out: GI50 HELA
  GI50: 11.6 µM
[11]; read-out: LC50 HELA
  CC50: 11.6 µM
[11]; read-out: TGI HELA
  IC (TGI): 11.6 µM
[12]; read-out: GI50 LOVO
  GI50: 11.6 µM
[12]; read-out: LC50 LOVO
  CC50: 11.6 µM
[12]; read-out: TGI LOVO
  IC (TGI): 11.6 µM
[13]; read-out: GI50 A549
  GI50: 11.6 µM
[13]; read-out: LC50 A549
  CC50: 11.6 µM
[13]; read-out: TGI A549
  IC (TGI): 11.6 µM
[14]; read-out: GI50 HT29
  GI50: 11.6 µM
[14]; read-out: LC50 HT29
  CC50: 11.6 µM
[14]; read-out: TGI HT29
  IC (TGI): 11.6 µM

## COc1ccc2[nH]c3c(c2c1)CCN[C@]31CS[C@@H]2c3c(OC(C)=O)c(C)c4c(c3[C@H](COC1=O)N1C2[C@@H]2N[C@@H](Cc3cc(C)c(OC)c(O)c32)[C@@H]1O)OCO4 (stereo partly shown) [compound 64]
[1]; read-out: IGROV-ET GI50
  GI50: 0.0348 µM
[1]; read-out: IGROV-ET LC50
  CC50: 8.3 µM
[1]; read-out: IGROV-ET TGI
  IC (TGI): 0.171 µM
[2]; read-out: LNCAP GI50
  GI50: 0.00102 µM
[2]; read-out: LNCAP LC50
  CC50: 0.00612 µM
[2]; read-out: LNCAP TGI
  IC (TGI): 0.00267 µM
[3]; read-out: LOVO-DOX GI50
  GI50: 0.32 µM
[3]; read-out: LOVO-DOX LC50
  CC50: 13 µM
[3]; read-out: LOVO-DOX TGI
  IC (TGI): 2.76 µM
[4]; read-out: K562 GI50
  GI50: 0.00086 µM
[4]; read-out: K562 LC50
  CC50: 0.812 µM
[4]; read-out: K562 TGI
  IC (TGI): 0.00471 µM
[5]; read-out: SK-BR3 GI50
  GI50: 0.000717 µM
[5]; read-out: SK-BR3 LC50
  CC50: 13 µM
[5]; read-out: SK-BR3 TGI
  IC (TGI): 0.15 µM
[6]; read-out: IGROV GI50
  GI50: 0.00178 µM
[6]; read-out: IGROV LC50
  CC50: 0.0109 µM
[6]; read-out: IGROV TGI
  IC (TGI): 0.00441 µM
[7]; read-out: MEL-28 GI50
  GI50: 0.00265 µM
[7]; read-out: MEL-28 LC50
  CC50: 0.0205 µM
[7]; read-out: MEL-28 TGI
  IC (TGI): 0.00624 µM
[8]; read-out: DU145 GI50
  GI50: 0.00289 µM
[8]; read-out: DU145 LC50
  CC50: 13 µM
[8]; read-out: DU145 TGI
  IC (TGI): 0.153 µM
[9]; read-out: PANC-1 GI50
  GI50: 0.00246 µM
[9]; read-out: PANC-1 LC50
  CC50: 13 µM
[9]; read-out: PANC-1 TGI
  IC (TGI): 0.0109 µM
[10]; read-out: HELA-APL GI50
  GI50: 0.00239 µM
[10]; read-out: HELA-APL LC50
  CC50: 0.00963 µM
[10]; read-out: HELA-APL TGI
  IC (TGI): 0.0048 µM
[11]; read-out: HELA GI50
  GI50: 0.0024 µM
[11]; read-out: HELA LC50
  CC50: 0.01 µM
[11]; read-out: HELA TGI
  IC (TGI): 0.00489 µM
[12]; read-out: LOVO GI50
  GI50: 0.00415 µM
[12]; read-out: LOVO LC50
  CC50: 12.5 µM
[12]; read-out: LOVO TGI
  IC (TGI): 0.0103 µM
[13]; read-out: A549 GI50
  GI50: 0.00519 µM
[13]; read-out: A549 LC50
  CC50: 1.12 µM
[13]; read-out: A549 TGI
  IC (TGI): 0.0366 µM
[14]; read-out: HT29 GI50
  GI50: 0.00358 µM
[14]; read-out: HT29 LC50
  CC50: 13 µM
[14]; read-out: HT29 TGI
  IC (TGI): 0.0132 µM
